Assay results reported in US20100221763A1, “Specific Acceptors for Transferases to Saccharides and Method for Obtaining and Using Same” (Health Research, Inc, priority 2005, published 2010).
“And” between values parts separate entries of the source, which are not always exact repeats. Identical values can stand only once.

Legend:
[1] = system: α1,2-L-FT of breast tumor BC9400; assay: α1,2-L-FT assay, breast tumor extract; format: biochemical, human; conditions: 1 mg protein of the tissue extract
Protocol: (§1) Colon tumor tissue (CC9338) and breast tumor tissue (BC9400) were obtained during surgical procedures at Roswell Park Cancer Institute and stored frozen within 1 h at −70° C. The tissues were homogenized at 4° C. with 4 volumes of 0.1M Tris Maleate […] 0.1% NaN3 using kinematica. After adjusting the concentration of Triton X-100 to 2%, these homogenates were mixed in the cold room for 1 h using Speci-Mix (Thermolyne) and then centrifuged at 20,000 g for 1 h at 4° C. The clear fat-free supernatant was stored frozen at −20° C. until use. Aliquots of 10 μL from this extract were used in assays run in duplicates. Glycosyltransferase activity in cell lysate was determined by mixing the lysates with acceptor and radiolabeled donor (monosaccharide) under the reaction conditions detailed below, followed by separation of un-reacted donor from the radioactive product using anionic or hydrophobic chromatography. In all cases, the radioactive content of isolated products was determined by using 3a70 scintillation cocktail (Research Products International, Mount Prospect, Ill.) and a Beckman LS6500 scintillation counter. Controls for each assay contained the reaction mixture with everything except the acceptor. All assays were run in duplicate.
(§2) α1,2, α1,6-, α1,3- and α1,4-fucosyltransferase (FT) assay reactions were carried out for 2 h in a reaction mixture containing 50 mM Hepes buffer (pH 7.5), 5 mM MnCl2, 7 mM ATP, 3 mM NaN3, 3 mM synthetic acceptor or 40 μg of fetuin-based acceptor, 0.05 μCi GDP-[14C]Fuc (290 mCi/mmol) and 10 μl cell extract in a total volume of 20 μl [Chandrasekaran et al., 1996]. Sulfotransferase (Sulfo T) assay reactions took 2 h and required a mixture containing 100 mM Tris-maleate (pH 7.2), 5 mM Mg Acetate, 5 mM ATP, 10 mM NaF, 10 mM BAL, 7.5 mM acceptor, 0.5 μCi of [^35S]PAPS (specific activity 2.4 Ci/mmol) and 10 μl of cell extract in a total volume of 30 μl [Chandrasekaran et al., 2004].
(§3) Dowex-1-C1 or Sep-Pak C18 cartridges were used to isolate radiolabeled product from the reaction mixture. For GalT, GalNAc-T and FT assays, the incubation mixture was diluted with 1 ml water and passed through a 1 ml Dowex-1-C1 column [Chandrasekaran et al., 1996; Chandrasekaran et al., 2001]. The column was washed twice with 1 ml of water. The breakthrough and the water wash contained the [^14C]-galactosylated or [^14C]-fucosylated products formed with neutral acceptors. 3 ml of 0.1M NaCl was used to obtain [^14C]-fucosylated products from sialylated acceptors after water elution. For sialytransferase assays, the radioactive products from benzylglycosides were separated by hydrophobic chromatography on Sep-Pak C18 cartridge (Waters, Milford, Mass.), and elution of the product was done with 3 ml methanol [Palcic et al., 1988]. […]

[2] = system: α1,2-L-FT of colon tumor CC9338; assay: α1,2-L-FT assay, colon tumor extract; format: biochemical, human; conditions: 1 mg protein of the tissue extract
Protocol: as §1, §2, §3

[3] = target: T1, Rat recombinant α2,3(O)ST (Rattus norvegicus, UniProt Q11205); assay: Sialyltransferase assay with cloned α2,3(O)ST; format: biochemical; conditions: for Km / Vmax: CMP-NeuAc 150 μM, Lineweaver-Burke plot; for Sialyltransferase activity (%) Cloned α2,3(O)ST: Table I, acceptor 7.5 mM, 100% = 40560 CPM (3-O-MeGalβ1,4GlcNAcβ1,6(Galβ1,3)GalNAcα-O-Bn)
T1 construct: purchased Calbiochem
T1 sequence (Q11205 1-350): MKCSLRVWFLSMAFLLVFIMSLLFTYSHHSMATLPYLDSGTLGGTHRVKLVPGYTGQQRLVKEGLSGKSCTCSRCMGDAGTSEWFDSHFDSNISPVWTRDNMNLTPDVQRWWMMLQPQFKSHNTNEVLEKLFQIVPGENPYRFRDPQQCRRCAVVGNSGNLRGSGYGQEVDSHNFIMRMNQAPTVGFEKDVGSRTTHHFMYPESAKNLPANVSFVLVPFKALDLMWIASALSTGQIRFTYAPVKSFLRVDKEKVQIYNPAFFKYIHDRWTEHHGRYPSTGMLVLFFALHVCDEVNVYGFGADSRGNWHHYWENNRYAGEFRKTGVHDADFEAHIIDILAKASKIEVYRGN

| Km [3] | Vmax [3] | Sialyltransferase activity (%) Cloned α2,3(O)ST [3] | Compound | α1,2-L-FT activity: incorporation of radioactive sugar [1] | α1,2-L-FT activity: incorporation of radioactive sugar [2] |
| --- | --- | --- | --- | --- | --- |
| 560 µM | 1873 pmol/h | 115.6^3% | CO[C@H]1O[C@H](CO)[C@H](O)[C@H](O[C@@H]2O[C@H](CO)[C@H](O)[C@H](O[C@@H]3O[C@H](C)[C@H](O)[C@H](O)[C@H]3O)[C@H]2NC(C)=O)[C@H]1O [D-Fucβ1,3GalNAcβ1,3Galα-O-Me] | 16.2 CPM × 10^−3 | 89.8 CPM × 10^−3 |
|  |  | 112.0% | C=CCO[C@H]1O[C@H](CO)[C@H](O)[C@H](O[C@@H]2O[C@H](CO)[C@H](O)[C@H](O)[C@H]2O)[C@H]1NC(C)=O [Galβ1,3GalNAcα-O—Al] | 5.5 CPM × 10^−3 | 36.8 CPM × 10^−3 |
| 120 µM | 1293^13 pmol/h | 120.8% and 120.8^2% | CO[C@H]1O[C@H](CO)[C@H](O)[C@H](O[C@@H]2O[C@H](CO)[C@H](O)[C@H](O[C@@H]3O[C@H](CO)[C@H](O)[C@H](O)[C@H]3O)[C@H]2NC(C)=O)[C@H]1O [Galβ1,3GalNAcβ1,3Galα-O-Me] | 13.7 CPM × 10^−3 | 49.1 CPM × 10^−3 |

Continued, compound first:

| Compound | Km [3] | Vmax [3] | Sialyltransferase activity (%) Cloned α2,3(O)ST [3] | α1,2-L-FT activity: incorporation of radioactive sugar [1] | α1,2-L-FT activity: incorporation of radioactive sugar [2] |
| --- | --- | --- | --- | --- | --- |
| CO[C@H]1[C@H](O[C@H]2[C@H](O)[C@@H](NC(C)=O)C(O)O[C@@H]2CO)O[C@H](CO)[C@H](O)[C@@H]1O (stereo partly drawn) [2-O-MeGalβ1,4GlcNAc] |  |  | 0.2% |  |  |
| CO[C@H]1[C@H](O[C@H]2[C@H](O)[C@@H](CO)OC(O)[C@@H]2NC(C)=O)O[C@H](CO)[C@H](O)[C@@H]1O (stereo partly drawn) [2-O-MeGalβ1,3GlcNAc] |  |  | 2.9% |  |  |
